Source: ChEMBL document CHEMBL1159197, “Novel bromopyrrole alkaloids from the sponge Agelas dispar” (1998)
Converted amounts (≈) assume the structure as drawn. The source made the active and inactive calls. The rule behind the calls is not given here.

What was measured:
Aspergillus niger = assay: Antimicrobial activity against Aspergillus niger; format: functional, organism-based
Staphylococcus aureus = assay: Antimicrobial activity against Staphylococcus aureus ATCC 6538; format: functional
Bacillus subtilis = assay: Antimicrobial activity against Bacillus subtilis ATCC 6633; format: functional

| Structure (SMILES) | Activity (Aspergillus niger) | Activity (Staphylococcus aureus) | Activity (Bacillus subtilis) | MIC (Staphylococcus aureus) [µg/mL] | MIC (Bacillus subtilis) [µg/mL] |
| --- | --- | --- | --- | --- | --- |
| C[N+]1=CNC[C@]1(C)C[C@H](NC(=O)c1cc(Br)c[nH]1)C(=O)[O-] | Active | – | – | – | – |
| C[C@]1(C[C@H](NC(=O)c2cc(Br)c[nH]2)C(=O)O)CNC=N1 | Active | inactive | inactive | – | – |
| C[N+]1=CNC[C@]1(C)C[C@@H](NC(=O)c1cc(Br)c[nH]1)C(=O)[O-] | Active | – | – | – | – |
| O=C(O)C[C@H]1CNC(=O)c2cc(Br)c(Br)n21 [LONGAMIDE B] | – | – | – | 55 (≈ 156 µM) | 45 (≈ 128 µM) |
| Cn1c(/C=C\CNC(=O)c2cc(Br)c[nH]2)cnc1N [KERAMADINE] | – | – | – | 35 (≈ 108 µM) | 40 (≈ 123 µM) |
| C[C@]1(C[C@@H](NC(=O)c2cc(Br)c[nH]2)C(=O)O)CNC=N1 | Active | inactive | inactive | – | – |
